Test results as given in paper PMC5820243, “Two inhibitors of yeast plasma membrane ATPase 1 (ScPma1p): toward the development of novel antifungal therapies” (Journal of Cheminformatics, 2018).

Target: T1, ScPma1p (yeast plasma membrane ATPase 1) (Saccharomyces cerevisiae, UniProt P05030)
T1 construct: gene PMA1
Assay: cell-free vesicle-based ATP hydrolysis assay (ScPma1p-overexpressing vesicles, phosphate release)
Type: biochemical

T1 sequence (P05030 whole entry): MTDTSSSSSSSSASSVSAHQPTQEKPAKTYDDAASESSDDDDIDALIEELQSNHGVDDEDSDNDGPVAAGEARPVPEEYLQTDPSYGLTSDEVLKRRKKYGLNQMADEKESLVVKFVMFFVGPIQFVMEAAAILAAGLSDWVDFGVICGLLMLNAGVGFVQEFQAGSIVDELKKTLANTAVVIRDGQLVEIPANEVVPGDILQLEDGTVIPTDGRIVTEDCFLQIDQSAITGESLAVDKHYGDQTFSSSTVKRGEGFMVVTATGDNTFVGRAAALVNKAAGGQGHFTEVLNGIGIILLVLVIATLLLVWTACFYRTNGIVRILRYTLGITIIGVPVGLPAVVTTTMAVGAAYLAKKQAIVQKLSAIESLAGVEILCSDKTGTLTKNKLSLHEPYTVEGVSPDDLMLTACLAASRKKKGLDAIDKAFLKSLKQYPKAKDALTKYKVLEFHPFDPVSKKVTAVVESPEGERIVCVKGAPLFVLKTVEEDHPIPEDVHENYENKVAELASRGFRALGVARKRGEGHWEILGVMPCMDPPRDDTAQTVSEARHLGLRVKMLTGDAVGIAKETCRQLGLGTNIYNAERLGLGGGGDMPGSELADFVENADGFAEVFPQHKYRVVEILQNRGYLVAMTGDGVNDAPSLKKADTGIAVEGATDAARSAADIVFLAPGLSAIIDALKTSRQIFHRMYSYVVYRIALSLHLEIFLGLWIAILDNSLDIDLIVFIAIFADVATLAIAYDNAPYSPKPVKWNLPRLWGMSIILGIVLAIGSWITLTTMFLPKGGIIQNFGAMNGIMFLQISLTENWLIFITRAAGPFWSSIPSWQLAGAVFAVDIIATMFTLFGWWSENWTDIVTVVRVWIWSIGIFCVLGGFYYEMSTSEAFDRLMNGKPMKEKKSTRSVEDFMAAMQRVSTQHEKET

IC50: 4.4 µM
SMILES: Cn1ncc2c(Nc3cccc(Cl)c3)nc(Nc3cccc(Cl)c3)nc21 [NSC11668, 4-N,6-N-bis(3-chlorophenyl)-1-methylpyrazolo[3,4-d]pyrimidine-4,6-diamine]
